Data set [1] in a line: Plasma levels of (+)-α-dihydrotetrabenazine up to 3 hours after oral dosing of human volunteers (Example 1A). It is filed as in vivo. The settings on record: 7.5 mg oral, 0.5 h. The procedure:
[…] […] Blood samples were not taken from the fifth volunteer. At 60 minutes after drug administration, PET scans were initiated and these were stopped at 120 minutes after drug administration. The experiment was carried out at dosages of 7.5 mg, 15 mg and 22.5 mg.

Data set [2] in a line: Plasma levels of (+)-α-dihydrotetrabenazine up to 7 hours after oral dosing of human volunteers (Example 1B). Format: in vivo. The settings on record: 7.5 mg, 7.5 mg oral. As for the experimental part: (§1) Volunteers 1 and 2 were the same as volunteers 1 and 2 in Example 1A described above. […] Blood sample were taken from all volunteers 1 to 3 at 2, 4, 6 and 7 hours after drug administration. In addition, in all volunteers PET scans were initiated at 6 hours after drug administration and these were stopped at 7 hours after drug administration.

A further data set deals with T1, VMAT2 (Homo sapiens, UniProt Q05940).
T1 construct: from tissue; host or cells: brain of living human volunteers, measured by PET
T1 sequence (Q05940 whole entry): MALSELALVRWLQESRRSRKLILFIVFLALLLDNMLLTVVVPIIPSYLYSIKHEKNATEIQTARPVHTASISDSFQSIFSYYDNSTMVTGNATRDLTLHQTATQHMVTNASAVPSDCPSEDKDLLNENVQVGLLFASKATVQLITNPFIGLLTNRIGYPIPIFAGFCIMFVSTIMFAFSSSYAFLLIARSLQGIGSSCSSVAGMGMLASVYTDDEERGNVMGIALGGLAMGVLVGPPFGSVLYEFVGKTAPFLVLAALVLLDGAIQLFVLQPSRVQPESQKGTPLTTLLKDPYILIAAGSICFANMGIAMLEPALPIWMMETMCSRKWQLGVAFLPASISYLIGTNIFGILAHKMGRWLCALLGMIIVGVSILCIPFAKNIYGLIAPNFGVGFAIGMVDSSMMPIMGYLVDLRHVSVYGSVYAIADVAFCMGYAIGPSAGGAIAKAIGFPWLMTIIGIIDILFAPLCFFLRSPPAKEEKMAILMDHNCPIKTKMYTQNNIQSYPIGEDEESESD
Put plainly: % VMAT2 blocking by PET scan 6-7 hours after oral dosing of human volunteers (Example 1B). It is filed as in vivo. The following applies: for reduction of level of VMAT2 blocking after 6-7 hours compared to 1-2 hours following administration: 7.5 mg.
Excerpt: Complete blocking of VMAT2 is considered undesirable as this can lead to unwanted side effects, such as Parkinsonism. […] The levels of VMAT2 blocking can be determined by competitive binding studies using Positron Emission Tomography (PET). By co-administering a radioactive ligand with the compound of interest at various concentrations, the proportion of binding sites occupied can be determined (see for example, Matthews et al., “Positron emission tomography molecular imaging for drug development”, Br. J. Clin. Pharmacol., 73:2, 175-186). Accordingly, the invention also provides:
as §1

Data set [3] concerns non-amphetamine induced rats. The data set is described as follows: Locomotor activity and stereotypic behaviour in non-amphetamine induced rats, open field arena (Example 2, Study 3). Format: in vivo, rat. The settings on record: Study 3, non-induced rats; (+)-α-DHTBZ 2.5 mg/kg or 5 mg/kg, risperidone 1 mg/kg. The procedure:
All animal experiments were carried out according to the National Institute of Health (NIH) guidelines for the care and use of laboratory animals, and approved by the National Animal Experiment Board, Finland. Male CD (Charles River Laboratories, Germany) at weight range of 200-250 g (165-200 g upon arrival) were used for the experiments. Animals were housed at a standard temperature (22±1° C.) and in a light-controlled environment (lights on from 7 am to 8 pm) with ad libitum access to food and water.
Locomotor activity of the rats was tested in open field arena. The open field test was performed during the rat light cycle and under a normal lighting evenly distributed to the test chambers. The paths of the rats were recorded by activity monitor (Med. Associates Inc.).
Dosing the vehicle, vehicle-amphetamine, (+)-α-DHTBZ or risperidone was done prior to LMA test. The rats were placed in the centre of the arena, and the path was recorded for 60 minutes.
Animals were grouped as follows: • Group 1: 10 rats treated with Vehicle • Group 2: 10 rats treated with (+)-α-DHTBZ 2.5 mg/kg • Group 3: 10 rats treated with (+)-α-DHTBZ 5 mg/kg • Group 4: 10 rats treated with risperidone 1 mg/kg

Consider one compound from patent US20220211678A1, “USES OF (+)-A-DIHYDROTETRABENAZINE IN METHODS OF TREATING MOVEMENT DISORDER” (ADEPTIO PHARMACEUTICALS LIMITED, priority 2017, published 2022).

As for `COc1cc2c(cc1OC)[C@H]1C[C@@H](O)[C@H](CC(C)C)CN1CC2` [(+)-α-dihydrotetrabenazine, (R,R,R)-3-isobutyl-9,10-dimethyloxy-1,3,4,5,7,11b-hexahydro-2H-pyrido[2,1-a]isoquinolin-2-ol], the “plasma concentration of (+)-α-dihydrotetrabenazine” value in data set [1] (subject 1 (112 kg)) and in data set [1] (subject 6 (68 kg)) was “BLQ” throughout. The concentration at 2 h in data set [2] (subject 1 (112 kg)) was 6.01 ng/mL; in data set [2] (subject 2 (76 kg)), 17.5 ng/mL; in data set [2] (subject 3 (76 kg)) it was 7.92 ng/mL. Besides, the results for the concentration at 4 h in data set [2] (subject 1 (112 kg)), in data set [2] (subject 2 (76 kg)) and in data set [2] (subject 3 (76 kg)) were 4.54 ng/mL, 4.54 ng/mL and 5.57 ng/mL, respectively. For the same compound, the concentration at 6 h in data set [2] (subject 1 (112 kg)) is 3.65 ng/mL; in data set [2] (subject 2 (76 kg)), 3.65 ng/mL; in data set [2] (subject 3 (76 kg)) it was 4.84 ng/mL. Further, the concentration at 7 h in data set [2] (subject 1 (112 kg)) stood at 8.7 ng/mL; in data set [2] (subject 2 (76 kg)), 11.7 ng/mL; in data set [2] (subject 3 (76 kg)), 12.8 ng/mL. For the same compound, the “% VMAT2 blocking” value at VMAT2 (7.5 mg oral, PET scan 6-7 hours after administration, subject 1 (112 kg)) is reported as 38%; on VMAT2 (7.5 mg oral, PET scan 6-7 hours after administration, subject 2 (76 kg)) it was 65%; at VMAT2 (7.5 mg oral, PET scan 6-7 hours after administration, subject 3 (76 kg)), 41%; at VMAT2 (7.5 mg oral, PET scan 6-7 hours after administration, subject 4 (95 kg)) it was 34%; at VMAT2 (7.5 mg oral, PET scan 6-7 hours after administration, subject 5 (99 kg)), 36%; on VMAT2 (after 6 hours following administration of 7.5 mg), “greater than 30%”. Moreover, the “reduction of level of VMAT2 blocking after 6-7 hours compared to 1-2 hours following administration” value is 30% on VMAT2 (subject 1) and 11% on VMAT2 (subject 2). Further, the “total movement compared to rats treated with the vehicle” value in data set [3] is given as “comparable”. The “total stereotypic behaviour compared to rats treated with the vehicle” value in data set [3] is reported as “comparable”.
